From US20250388554A1, “ANTIBACTERIAL COMPOUNDS, METHOD OF PRODUCTION AND USE THEREOF” (priority 2024, published 2025)
Values after ≈ are worked out from the molar mass of the structure shown.

What was measured:
[1] = target: IGPD (Rv1601) (Mycobacterium tuberculosis, UniProt P9WML9); assay: IGPD stopped-assay, IC50 study; assay type: biochemical
[2] = tested on: Mtb H37Rv; design: species or system Mycobacterium tuberculosis; settings: in vivo; for bacterial burden in lungs vs untreated control (CFU) / bacterial burden in spleen vs untreated control (CFU): 100 mg/kg
[3] = tested on: Mtb H37Rv; assay: Resazurin assay (REMA) / alamarBlue MIC; assay type: cell-based; settings: Mycobacterium tuberculosis, minimal media
[4] = tested on: Mtb H37Rv in RAW 264.7 macrophages; assay: Efficacy testing in Mtb infected macrophage model; assay type: cell-based, Mycobacterium tuberculosis; settings: RAW 264.7, MOI=10, 3 days of treatment, 0-240 μM
[5] = Acute oral toxicity study (OECD 425), 14 days; settings: for serum levels of SGOT, SGPT, creatinine, and urea compared to the untreated group: all doses, day 14; for LD50: oral, single dose, mice; for body weight compared to the untreated group: single oral dose, female mice, monitored for 14 days
Experimental: Healthy CD-1 female mice with weight 34±4 grams were used. The animals were housed individually in cages and maintained in a standard laboratory environment. […] A limit dose of 2000 mg/kg body weight of compound was used involving three mice. Each mouse was treated with a single oral dose of 5, 50, 500, 2000 mg/kg body weight on Day 0. Animals were observed individually at least once during the first 30 min after dosing, periodically during the first 24 h and daily thereafter, for a total of 14 days for any clinical signs of toxicity or mortality. At the end of 14 day's observation period, the animals were anaesthetized, and their blood samples were collected through retro orbital bleeding for biochemical and histopathological studies, respectively. For biochemical analysis, blood was centrifuged at 4000 rpm at 4° C. for 10 min, serum was separated and Serum Glutamate Pyruvic Transaminase (SGPT), Serum Glutamate Oxaloacetic Transaminase (SGOT), creatinine, and, urea were estimated using a semi-automated Biochemical coralyzer. For histopathological studies, the animals were euthanized and the livers and kidneys were harvested and examined macroscopically. These organs were then preserved in 10% formalin made in PBS for histopathological examinations by standard techniques.
For this, the liver and kidney tissue samples were embedded into wax blocks. The wax blocks were subjected to microtome to generate sections, which were then stained with Hematoxylin and Eosin dyes at a commercial facility. The tissue sections were viewed in a bright field microscope at 40× magnification.

[6] = single oral dose 5 mg/kg, 5 mice initial, 14 days
[7] = single oral dose 5 mg/kg, 5 mice, 14 days
[8] = single oral dose 50 mg/kg, 5 mice initial, 14 days
[9] = single oral dose 50 mg/kg, 5 mice, 14 days
[10] = single oral dose 500 mg/kg, 5 mice initial, 14 days
[11] = single oral dose 500 mg/kg, 5 mice, 14 days
[12] = female, CD-1, mouse, in vivo, po, 2000 mg/kg, 14 days

Sequence of IGPD (Rv1601) (P9WML9 whole entry, looked up): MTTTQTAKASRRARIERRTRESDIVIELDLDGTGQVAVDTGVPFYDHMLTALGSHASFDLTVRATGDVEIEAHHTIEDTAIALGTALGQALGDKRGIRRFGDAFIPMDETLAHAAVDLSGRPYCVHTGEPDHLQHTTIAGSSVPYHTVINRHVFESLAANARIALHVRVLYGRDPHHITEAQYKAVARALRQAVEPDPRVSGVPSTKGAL

Structure (SMILES) | IC50 [1] | bacterial burden in lungs vs untreated control (CFU) ([2]; po) | bacterial burden in spleen vs untreated control (CFU) ([2]; po) | MIC99 [3] | bacterial load in Mtb infected macrophages (CFU) [4] | bacterial burden with supplementation of histidine [2] | serum levels of SGOT, SGPT, creatinine, and urea compared to the untreated group [5] | kidney histology (H&E) ([5]; mouse, in vivo) | liver histology (H&E), FIG. 11 ([5]; mouse, in vivo) | LD50 [5] | Mice number final [5, 6] | Total Deaths (D) [5, 7] | Mice number final [5, 8] | Total Deaths (D) [5, 9] | Mice number final [5, 10] | Total Deaths (D) [5, 11] | body weight compared to the untreated group [5] | other results
CC(N)c1ncnn1C (centres unmarked) [SF1, 1-(2-methyl-1,2,4-triazol-3-yl)ethanamine] | 33.5 µM | no reduction in the bacterial burden | no reduction in the bacterial burden | 31.2 µM (≈ 3.94 µg/mL) | approximately a thousand-fold decline | – | – | – | – | – | – | – | – | – | – | – | – | –
NCCSc1ncn[nH]1 [SF3, 2-(1H-1,2,4-triazol-5-ylsulfanyl)ethanamine] | 76.9 µM | significant lowering of the bacterial burden | significant lowering of the bacterial burden | 500 µM (≈ 72.1 µg/mL) | did not reduce the bacterial load | restored the bacterial burden to the untreated levels | no significant changes | no pathological changes | no pathological changes | below 5000 mg/kg body weight | 5 | 0 | 5 | 0 | 5 | 0 | decreased for 5, 500, and 2000 mg/kg body weight and increased for 5000 mg/kg body weight | clinical signs in surviving mice ([5]; oral 5, 50, 500 and 2000 mg/kg body weight, 14 days): no clinical signs of adverse effects/toxicity; clinical signs ([5]; single dose of 5000 mg/kg, after 12-24 h): slowness and weight decline; Mice number final ([5]; single oral dose 2000 mg/kg, 5 mice initial, 14 days): 3; Total Deaths (D) ([5]; single oral dose 2000 mg/kg, 5 mice, 14 days): 2; Mice number final ([5]; single oral dose 5000 mg/kg, 5 mice initial, 14 days): 2; Total Deaths (D) ([5]; single oral dose 5000 mg/kg, 5 mice, 14 days): 3
CC(C)C(N)c1ncnn1C (centres unmarked) [SF2, 2-methyl-1-(2-methyl-1,2,4-triazol-3-yl)propan-1-amine] | 44.1 µM | no reduction in the bacterial burden | no reduction in the bacterial burden | 125 µM (≈ 19.3 µg/mL) | hundred-fold decline | restored the bacterial burden to the untreated levels | no significant changes | no pathological changes | no pathological changes | greater than 2000 mg/kg body weight | 5 | 0 | 5 | 0 | 5 | 0 | increased for all doses while a slight dip in weight for 5 mg/kg body weight on 7th day was observed | bacterial load in lungs vs untreated control (CFU) ([2]; po, 200 mg/kg): significant decrease in the bacterial load; reduction in the bacterial load in spleen vs untreated control (CFU) ([2]; po, 200 mg/kg): not found to be statistically significant; Mice number final [5, 12]: 5; Total Deaths (D) [5, 12]: 0; clinical signs in surviving mice ([5]; mouse, in vivo): no clinical signs of adverse effects/toxicity
